The source of these data is patent publication US9688638B2, “Opioid agonists and uses thereof” (priority 2013, dated 2017).

Assay [1] concerns the target recombinant human kappa (KOR) opioid receptor (Homo sapiens (Human), UniProt P41145). In words: biochemical. It is filed as binding.
The test system of assay [2] is Swiss Albino or CD-1 male mice. Put plainly: Acetic acid writhing (AAW) analgesic assay. Type of assay: in vivo. The method, then:
Approaches for evaluating analgesic activity of a compound of the present invention in vivo include a “writhing test.” Briefly, the compound to be tested is administered [by, for example, injection (e.g., subcutaneous injection)] to the mouse. Thereafter, a 0.5% acetic acid solution is administered (i.p.) to a mouse and the numbers of writhing responses are counted for twenty minutes. Antinociception is quantified as reduction in the number of writhes respective to vehicle.
An analgesic assay was used to determine whether a given compound can reduce and/or prevent visceral pain in mice. The assay utilizes Swiss Albino or CD-1 male mice (5-10 mice per group), each mouse being approximately 0.015-0.030 kg on the study day. Mice were treated according to standard protocols.
The animal was given an intraperitoneal (IP) injection of an irritant (acetic acid) that induces “writhing” which may include: contractions of the abdomen, twisting and turning of the trunk, arching of the back and the extension of the hindlimbs. Mice are given a single IP injection (0.1 mL/10 g bodyweight) of a 0.5% acetic acid solution. After the injection the animals were returned to their observation enclosure and their behavior was observed. Contractions were counted between 0 and 20 minutes after the injection. The animals were used once. In certain instances, the test articles were administered at multiple doses to determine a dose response curve.
Table 4 provides the results for certain compounds of the present invention that were administered subcutaneously. Table 5 provides the results for certain compounds of the present invention that were administered orally.
Background: Writhing tests count abdominal constrictions after an irritant is injected.

For another assay, the target named is KOR (Homo sapiens (Human), UniProt P41145). In words: cAMP accumulation assay, forskolin-stimulated CHO-K1 cells stably expressing KOR. It is filed as cell-based. The method, then: (§1) Inhibition of cAMP accumulation by select compounds was measured in forskolin-stimulated CHO-K1 cells stably expressing KOR. CHO-K1 cells stably expressing KOR were harvested using Invitrogen Cell Dissociation Buffer, and then centrifuged at 1200 rpm for five minutes. The supernatant was aspirated and cells were resuspended in assay buffer to a density of 4×10^5 cells/mL. 25 μL of cells were added into a white half-area 96 well plate. Fourteen point serial dilutions of test compounds were carried out in assay buffer (PBS with 0.5 mM IBMX). Ketazocine was used as a positive control for each assay. 12.5 μL of compound was added to the cells in duplicate for each test concentration. The cells were then stimulated with 12.5 μL forskolin at a final concentration 20 μM. Cells were incubated for 45 minutes in a 37° C., 5% CO2 water jacketed incubator. CisBio HTRF cAMP assay reagent was used for cAMP quantitation. Two hours after substrate addition, signal at 665/615 nm was measured using the Perkin Elmer Victor X4 HTRF reader. Data analysis was done using GraphPad Prism, sigmoidal dose-response (variable slope) curve fitting.
In general terms: cAMP levels reflect the balance of adenylyl cyclase and phosphodiesterase activity.

Assay [3] concerns the target recombinant human mu (MOR) opioid receptor (Homo sapiens (Human), UniProt P35372). Put plainly: Radioligand competition binding assay, mu opioid receptor. The conditions noted are these: [3H]Naloxone 4 nM, CHO-K1 membranes. The method, then: The binding affinities of certain compounds of the present invention were evaluated using radioligand binding assays in membranes prepared from CHO-K1 cells expressing recombinant human kappa (KOR) or mu (MOR) opioid receptors.
Competition binding experiments were conducted by incubating membrane protein to equilibrium in triplicate in the presence of a fixed concentration of radioligand and increasing concentrations of test compound for evaluation of binding to KOR or single concentration (10 μM) of test compound for evaluation of binding to MOR in 101 μL final volume. The radioligands used were specific for each receptor type, and the assay conditions are described in Table 1. Following incubations, the membranes were rapidly filtered through GF/B filter plate (presoaked with 0.5% polyethyleneimine), washed five times with cold 50 mM Tris-HCl, pH 7.5, and the bound radioactivity was then measured by liquid scintillation counting. Non-specific binding was measured in the presence of excess ligand; this value was subtracted from the total binding to yield the specific binding at each test concentration.
Ki (affinity of test compound) was obtained using the Cheng Prusoff correction using experimental Kd (affinity of radioligand) values that were previously determined under these assay conditions. For MOR binding, compounds were tested at one concentration, 10 μM, to evaluate its ability to inhibit specific radioligand binding. The values are expressed as percent inhibition of specific binding and greater than 50% inhibition of binding was considered to be significant.
With respect to determining MOR binding, an approach similar to one used for KOR binding was used.

For another assay, the target named is MOR (Homo sapiens (Human), UniProt P35372). Put plainly: cAMP accumulation assay, forskolin-stimulated CHO-K1 cells stably expressing MOR. Type of assay: cell-based. The following applies: inhibition of cAMP accumulation. The method, then:
as §1
Using a similar approach, inhibition of cAMP accumulation by select compounds was also determined in forskolin-simulated CHO-K1 cells stably expressing MOR (wherein for this assay a density of 8×10^5 cells/mL was used and the positive control was DAMGO). Certain compounds of the present invention were tested as described above.

[4] abbreviates: Cheng Prusoff correction, [3H]Diprenorphine 1 nM, CHO-K1 membranes, read-out: Kappa receptor binding Ki.
Setting [5] is: [3H]Diprenorphine 1 nM, CHO-K1 membranes, read-out: Kappa receptor binding IC50.
Setting [6] is: Mus musculus, po, 20 min, oral, read-out: AAW % Efficacy.
Setting [7] is: Mus musculus, po, 20 min, oral, 10 mg/kg, read-out: AAW % Efficacy.
Setting [8] is: Mus musculus, sc, 20 min, subcutaneous, read-out: AAW % Efficacy.
[9] abbreviates: inhibition of cAMP accumulation, forskolin 20 μM, read-out: EC50 cAMP (nM)-KOR.
Where [10] appears, read: Mus musculus, sc, 20 min, subcutaneous, 3 mg/kg, read-out: AAW % Efficacy.
Where [11] appears, read: Mus musculus, sc, 20 min, subcutaneous, 10 mg/kg, read-out: AAW % Efficacy.

Several values for one entry are separate records, joined by “and”; a condition that tells them apart may be missing. Identical values can stand only once. Like-named read-outs stand apart in the source and are kept apart here.

Regarding `C[C@H]1[C@H]2C(=O)c3ccc(O)cc3[C@]1(C)CCN2CC1CC1` [Ketazocine, (2S,6R,11R)-3-(cyclopropylmethyl)-8-hydroxy-6,11-dimethyl-3,4,5,6-tetrahydro-2,6-methanobenzo[d]azocin-1(2H)-one, reference compound], the Ki (commonly the dissociation constant of the complex between target and ligand, obtained from inhibition or displacement) in assay [1] (setting [4]) is 1.3 nM. Besides, the concentration for half-maximal inhibition (IC50) (usually the concentration needed to halve the response being measured) in assay [1] (setting [5]) was determined as 5.6 nM; in assay [3], 8.4 nM. Also, the inhibition in vivo at 0.1 mg/kg was found to be 12.8% in assay [2] (setting [6]) and 50% in assay [2] (setting [8]). Also, the figures for the inhibition in vivo at 1 mg/kg in assay [2] (setting [6]) and in assay [2] (setting [8]) were 34.5% and 100%, respectively. Further, in assay [2] (setting [7]), the inhibition in vivo at 10 mg/kg is 58.9%. Further, in assay [2] (Mus musculus, po, 20 min, oral, 100 mg/kg, read-out: AAW % Efficacy), the inhibition in vivo at 100 mg/kg worked out at 100%. The inhibition in vivo at 0.01 mg/kg in assay [2] (Mus musculus, sc, 20 min, subcutaneous, 0.01 mg/kg, read-out: AAW % Efficacy) stood at 10.6%. Besides, at KOR, the EC50 – broadly, the concentration giving half of the maximal effect – amounted to 0.55 nM.
In the case of `C[C@H]1[C@H]2C(=O)c3ccc(NC(C)(C)CO)cc3[C@]1(C)CCN2CC1CC1` [Compound 23, (2S,6R,11R)-3-(Cyclopropylmethyl)-8-((1-hydroxy-2-methylpropan-2-yl)amino)-6,11-dimethyl-3,4,5,6-tetrahydro-2,6-methanobenzo[d]azocin-1(2H)-one], the Ki was determined as 1050 nM in assay [1] (setting [4]) and 7960 nM in assay [3]. Further, the concentration giving a half-maximal response (EC50) on MOR stood at 3290 nM; on KOR (setting [9]), 395 nM.
With `COCCOCCOCCOCCOCCOCCOCCOc1ccc2c(c1)[C@]1(C)CCN(CC3CC3)[C@H](C2=O)[C@@H]1C` [Compound 6, (2S,6R,11R)-3-(Cyclopropylmethyl)-8-(2,5,8,11,14,17,20-heptaoxadocosan-22-yloxy)-6,11-dimethyl-3,4,5,6-tetrahydro-2,6-methano-3-benzazocin-1(2H)-one], in assay [1], the IC50 turned out to be 6080 nM and the Ki is 1400 nM. The molecule also gave a half-maximal effective concentration (EC50) at KOR of 357 nM.
As for `COCCOCCOCCOCCOCCNc1ccc2c(c1)[C@]1(C)CCN(CC3CC3)[C@H](C2=O)[C@@H]1C` [Compound 2, (2S,6R,11R)-3-(Cyclopropylmethyl)-6,11-dimethyl-8-(2,5,8,11,14-pentaoxahexadecan-16-ylamino)-3,4,5,6-tetrahydro-2,6-methano-3-benzazocin-1(2H)-one], in assay [1], the 50% inhibitory concentration (IC50) came out at 2380 nM and the inhibition constant (Ki) came to 549 nM. For the same molecule, the half-maximal effective concentration (EC50) at KOR (setting [9]) came to 139 nM.
On to `COCCOCCOCCOc1ccc2c(c1)[C@]1(C)CCN(CC3CC3)[C@H](C2=O)[C@@H]1C` [Compound 4, (2S,6R,11R)-3-(Cyclopropylmethyl)-8-{2-[2-(2-methoxyethoxy)ethoxy]ethoxy}-6,11-dimethyl-3,4,5,6-tetrahydro-2,6-methano-3-benzazocin-1(2H)-one], for which, in assay [1], the 50% inhibitory concentration (IC50) is 879 nM and the Ki was 203 nM. The inhibition in vivo at 200 mg/kg in assay [2] (Mus musculus, po, 20 min, oral, 200 mg/kg, read-out: AAW % Efficacy) was 3.8%. Moreover, the inhibition in vivo at 3 mg/kg in assay [2] (setting [10]) was 0%. Also, in assay [2] (setting [11]), the inhibition in vivo at 10 mg/kg amounted to 39.7%. Moreover, the inhibition in vivo at 30 mg/kg in assay [2] (setting [8]) was determined as 100%. Further, a half-maximal effect at KOR (EC50) was put at 9.35 nM.
`COCCOCCOCCOCCOCCO[C@@H]1c2ccc(O)cc2[C@]2(C)CCN(CC3CC3)[C@H]1[C@@H]2C` [Compound 25, (1R,2S,6R,11R)-1-(2,5,8,11,14-pentaoxahexadecan-16-yloxy)-3-(cyclopropylmethyl)-6,11-dimethyl-1,2,3,4,5,6-hexahydro-2,6-methanobenzo[d]azocin-8-ol]: in assay [1], the Ki came to 955 nM. The EC50 at KOR (setting [9]) was 195 nM.
With `COCCOCCN1CC[C@@]2(C)c3cc(O)ccc3C(=O)[C@@H]1[C@@H]2C` [Compound 14, (2S,6R,11R)-8-hydroxy-3-(2-(2-methoxyethoxy)ethyl)-6,11-dimethyl-3,4,5,6-tetrahydro-2,6-methanobenzo[d]azocin-1(2H)-one], in assay [2] (setting [11]), the inhibition in vivo at 10 mg/kg amounted to 13.2%.
Take `COCCOCCOCCOCCOCCOCCOCCNc1ccc2c(c1)[C@]1(C)CCN(CC3CC3)[C@H](C2=O)[C@@H]1C` [Compound 3, (2S,6R,11R)-3-(Cyclopropylmethyl)-8-(2,5,8,11,14,17,20-heptaoxadocosan-22-ylamino)-6,11-dimethyl-3,4,5,6-tetrahydro-2,6-methano-3-benzazocin-1(2H)-one]: the Ki in assay [1] (setting [4]) amounted to 769 nM. In assay [1] (setting [5]), the IC50 stood at 3330 nM. Moreover, on KOR (setting [9]), the EC50 came out at 122 nM.
With `COCCOCCOCCOCCOCCOc1ccc(Nc2ccc3c(c2)[C@]2(C)CCN(CC4CC4)[C@H](C3=O)[C@@H]2C)cc1` [Compound 9, (2S,6R,11R)-8-((4-(2,5,8,11,14-pentaoxahexadecan-16-yloxy)phenyl)amino)-3-(cyclopropylmethyl)-6,11-dimethyl-3,4,5,6-tetrahydro-2,6-methanobenzo[d]azocin-1(2H)-one], the figures for the inhibition in vivo at 10 mg/kg in assay [2] (setting [7]) and in assay [2] (setting [11]) were 38.5% and 95.4%, respectively. Also, the inhibition in vivo at 0.3 mg/kg in assay [2] (Mus musculus, sc, 20 min, subcutaneous, 0.3 mg/kg, read-out: AAW % Efficacy) is 13.3%. For the same molecule, the inhibition in vivo at 3 mg/kg in assay [2] (setting [10]) is 67.8%. Also, the inhibition in vivo at 30 mg/kg in assay [2] (setting [8]) is 99.2%. Also, the “AAW percent efficacy, outlier data removed” value in assay [2] (subcutaneous, 0.3 mg/kg) was 13.18; in assay [2] (subcutaneous, 3 mg/kg), 64.20 and 57.09; in assay [2] (subcutaneous, 10 mg/kg), 94.93.
`COCCNC(=O)c1ccc2c(c1)[C@]1(C)CCN(CC3CC3)[C@H](C2=O)[C@@H]1C` [Compound 16, (2S,6R,11R)-3-(cyclopropylmethyl)-N-(2-methoxyethyl)-6,11-dimethyl-1-oxo-1,2,3,4,5,6-hexahydro-2,6-methanobenzo[d]azocine-8-carboxamide]: the inhibition in vivo at 10 mg/kg in assay [2] (setting [11]) turned out to be 26.4%.
In the case of `COCCOCCOCCOCCOCCNc1nc2cc3c(cc2s1)C(=O)[C@@H]1[C@H](C)[C@@]3(C)CCN1CC1CC1` [Compound 13, (6S,10R,12R)-2-(2,5,8,11,14-pentaoxahexadecan-16-ylamino)-7-(cyclopropylmethyl)-10,12-dimethyl-7,8,9,10-tetrahydro-6,10-methanothiazolo[4′,5′:4,5]benzo[1,2-d]azocin-5(6H)-one], in assay [2] (setting [11]), the inhibition in vivo at 10 mg/kg amounted to 40.2%.
On to `COCCOCC(=O)Nc1ccc2c(c1)[C@]1(C)CCN(CC3CC3)[C@H](C2=O)[C@@H]1C` [Compound 15, N-((2S,6R,11R)-3-(cyclopropylmethyl)-6,11-dimethyl-1-oxo-1,2,3,4,5,6-hexahydro-2,6-methanobenzo[d]azocin-8-yl)-2-(2-methoxyethoxy)acetamide], for which the inhibition in vivo at 10 mg/kg in assay [2] (setting [11]) is 100%.
